This is an account of results in PMC10675340, “Preparation, Radiolabeling with ^68Ga/^177Lu and Preclinical Evaluation of Novel Angiotensin Peptide Analog: A New Class of Peptides for Breast Cancer Targeting” (Pharmaceuticals, 2023).

Where a SMILES comes first, the peptide text is derived from it. Where no end group is shown, it is not given here. [ ]: non-standard residue; d: D form. The star is where a group is joined. DOTA = O=C(O)CN1CCN(CC(=O)O)CCN(CC(=O)*)CCN(CC(=O)O)CC1; βAla = NCCC(=O)O A value given as a limit tells only on which side of the number the result lay.

In general, Kd refers to the concentration at which binding is half-saturated.

The subject of data set [1] is human breast cancer cells. Particulars: cited from earlier work. The procedure: The values were 27.73 ± 5.97 nM for MDA-MB-231 and 35.14 ± 7.09 nM for the MCF7 breast cancer cell line. Thes ...
A further data set relates to Balb/c mice. In words: In vivo biodistribution in normal Balb/c mice. More on the design: species or system mouse. Particulars: Balb/c mice. The procedure: The in vivo biodistribution of ^68Ga-labeled AngII peptide analog was carried out in female Balb/c mice, at various time points, to observe the uptake in the normal tissues and organs and find the excretion route of the radiolabeled peptides. […] Low uptake and retention of the radiopeptide in the liver varying from 1.54 ± 0.28% ID/g at 45 min to 0.48 ± 0.17% ID/g at 2 h p.i. is probably related to the high hydrophilicity (log p = −0.55 ± 0.11) of the ^68Ga-labeled AngII peptide analog. […] The efficient clearance from the kidneys is possibly associated with the urinary excretion of the radiopeptide. […] The low amount of uptake in the bone (up to 0.37 ± 0.14% ID/g) (Table 2) indicates the minimal breakdown of the ^68Ga-labeled AngII peptide complex in vivo combined with the minor release of free ^68Ga. These findings are in agreement with the high in vitro metabolic stability observed in the human plasma for the radiolabeled AngII peptide. The accumulation in the extremely vascular organ lungs was also low (up to 1.11 ± 0.37% ID/g) signifying a low trapping by the lungs.
Approval from the Institutional Animal Care and Use Committee was obtained for the animal protocol used. Additionally, strict international regulations govern the safe and proper use of laboratory animals employed during animal experiments. In vivo, biodistribution was performed on healthy female mice according to the methods essentially described previously. In summary, Balb/c mice (n = 5 per time point, body mass 20–25 g) at 45 min and 2 h were administered with the HPLC-purified AngII peptide (~1 µg, 100 µL, 0.925–1.85 MBq; 25–50 µCi) via lateral tail vein injection. At the specified time points, the animals were sacrificed by cervical dislocation. A fraction of the blood was collected from cardiac puncture. Urine was also collected and measured with the bladder contents. Major organs, such as the lungs, pancreas, stomach, liver, heart, kidneys, and intestines were isolated, weighed, and measured for radioactivity. The uptake values of the radiolabeled peptide in different organs are expressed as the percent injected dose per gram (% ID/g) of tissue/organ. The radioactivity in the urine with bladder contents is shown as the percent of the injected dose per organ (% ID/organ). To calculate the injected dose, a standard (20-fold dilution of injected dose) was prepared and counted together with animal tissue samples.

A short description of data set [2]: In vitro metabolic stability in human plasma. It is filed as in vitro ADME. The note with it: 37 °C, radio-HPLC. The procedure: High proteolytic stability is an important aspect of the tumor-targeting peptides to deliver the highest possible tumor-targeting effect. The extent of proteolytic degradation of the ^177Lu-AngII peptide was determined by incubating the radiolabeled peptide with human plasma at 37° C for up to 5 h. […] A limited release of free ^177Lu amount (up to 10%) indicates the high in vitro plasma stability of the radiolabeled peptide, with low enzymatic breakdown by plasma proteases (Figure 2).
Human plasma was obtained from the institutional blood bank from volunteers’ blood donors (with consent). The metabolic stability of ^177Lu-DOTA-AngII peptide was determined following a method essentially as described previously. In summary, the radiolabeled peptide (50 μL) was mixed with plasma (400 μL) and incubated in duplicate at 37 °C for up to 5 h. After incubation, the plasma proteins were precipitated using a mixture of CH3CN/EtOH (1:1 v/v, 400 μL). The supernatant layer was collected by centrifugation (5000 rpm for 5 min), filtered through a 0.2-µm Millex GP filter, and analyzed by radio-HPLC to assess the product stability.

Regarding “^125I-angiotensin II: radioiodinated angiotensin II from the literature, ref 13 (DRVYIHPF; also: radioiodinated (125I label), site not given here; UniProt P01019 25-32, looked up)”, in data set [1], the Kd is approximately 60 nM.

Consider `CC[C@H](C)[C@H](NC(=O)[C@H](Cc1ccc(O)cc1)NC(=O)[C@@H](NC(=O)[C@H](CCCNC(=N)N)NC(=O)[C@H](CC(=O)O)NC(=O)CCNC(=O)[C@H](CCCCN)NC(=O)CN1CCN(CC(=O)O)CCN(CC(=O)O)CCN(CC(=O)O)CC1)C(C)C)C(=O)N[C@@H](Cc1c[nH]cn1)C(=O)N1CCC[C@H]1C(=O)N[C@@H](Cc1ccccc1)C(=O)N[C@@H](Cc1c[nH]c2ccccc12)C(=O)N[C@@H](CCCCN)C(=O)N[C@@H](Cc1ccc(O)cc1)C(N)=O` [^177Lu-DOTA-AngII peptide, metal not drawn] ({DOTA}-K[βAla]DRVYIHPFWKY-NH2), for which, in the data set on Balb/c mice, the “Biological and excretion pattern compared with the ^68Ga-labeled counterpart” value was “more or less the same biological and excretion pattern”. In data set [2] (human plasma 400 μL + 50 μL radiopeptide, duplicate, CH3CN/EtOH precipitation, read-out: Radioactivity still associated with the radiolabeled peptide), the remaining at 5 h is more than 90%. The “Release of free ^177Lu” value in data set [2] (human plasma, 5 h) is recorded as “up to 10%”.
